# Data taken from US20250332173A1, “COMPOUNDS AND METHODS FOR MODULATING NUCLEIC ACID SPLICING” (REMIX THERAPEUTICS INC., priority 2021, published 2025).
# Read-outs that look alike come from different tables or passages of the source.
# Legend:
# [1] = tested on: K562 (human chronic myelogenous leukemia) cells; assay: Cell Titer Glo 2.0 cell viability assay; format: cell-based; details: Homo sapiens, K562, 72 h, K562 cells, 72 hours, Cell Titer Glo 2.0; read-out: K562 GI50
# Target C = assay: RT-qPCR splicing assay panel, Target C canonical junction (CJ) mRNA; format: cell-based, human; details: Homo sapiens; canonical junction qPCR panel, Table 5; read-out: Target C (decrease in CJ mRNA levels, IC50)
# Procedure, shortened: (§1)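 Canonical-junction transcript levels in compound-treated A673 or K562 cells (24 h, up to 10 uM final) were determined from lysates by RT-qPCR with housekeeping-gene normalization.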
# SMN2 mRNA = assay: RT-qPCR splicing assay, SMN2 canonical junction (CJ) mRNA; format: cell-based, human; details: Homo sapiens; canonical junction qPCR panel, Table 5; read-out: SMN2 (decrease in CJ mRNA levels, IC50)
# Procedure, shortened: as §1
# MYB mRNA = assay: RT-qPCR splicing assay, MYB canonical junction (CJ) and alternative junction (AJ) mRNA; format: cell-based, human; details: Homo sapiens; for AC50: increase in MYB alternative junction (AJ) mRNA, read-out: MYB AJ AC50
# Procedure, shortened: (§2)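 A673 cells (normalized to PPIA) or K562 cells (normalized to GAPDH or GUSB) were treated 24 h at 37 °C with an 11-point 3-fold dilution series, top 10 uM, DMSO ≤0.25%. Cell lysates went to one-step RT-qPCR measuring canonical- and alternative-junction MYB or HTT transcripts.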
# HTT mRNA = assay: RT-qPCR splicing assay, HTT canonical junction (CJ) and alternative junction (AJ) mRNA; format: cell-based, human; details: Homo sapiens; for AC50: increase in HTT alternative junction (AJ) mRNA, read-out: HTT AJ AC50
# Procedure, shortened: as §2
# [2] = canonical junction qPCR panel, Table 5, read-out: MYB (decrease in CJ mRNA levels, IC50)
# [3] = decrease in MYB canonical junction (CJ) mRNA, RT-qPCR, read-out: MYB CJ IC50
# [4] = decrease in HTT canonical junction (CJ) mRNA, RT-qPCR, read-out: HTT CJ IC50
# [5] = canonical junction qPCR panel, Table 5, read-out: HTT (decrease in CJ mRNA levels, IC50)
Structure (SMILES),GI50 [1] [nM],IC50 (Target C) [nM],IC50 (SMN2 mRNA) [nM],IC50 (MYB mRNA; [2]) [nM],IC50 (MYB mRNA; [3]) [nM],IC50 (HTT mRNA; [4]) [nM],IC50 (HTT mRNA; [5]) [nM],AC50 (MYB mRNA; RT-qPCR) [nM],AC50 (HTT mRNA; RT-qPCR) [nM]
"Cn1cc2cc(-c3ccc4c(=O)n(C56CCC(N)(CC5)C6)ccc4n3)c(O)cc2n1 [Compound 1481, 6-(4-aminonorbornane-1-yl)-2-(6-hydroxy-2-methyl-indazol-5-yl)-1,6-naphthyridin-5-one]",< 100,1000 to 10000,< 100,< 100,100 to 1000,1000 to 10000,100 to 1000,< 100,100 to 1000
"Cc1cn2cc(-c3ncc4c(=O)n(C5C[C@H](C)N[C@@H](C)C5)ccc4n3)cc(F)c2n1 (stereo partly drawn) [Compound 1482, 6-[(2S,6S)-2,6-dimethyl-4-piperidyl]-2-(8-fluoro-2-methyl-imidazo[1,2-a]pyridin-6yl)pyrido[4,3-d]pyrimidin-5-one]",< 100,100 to 1000,< 100,< 100,100 to 1000,1000 to 10000,1000 to 10000,< 100,1000 to 10000
"Cc1cn2cc(-c3ncc4c(=O)n(C5C[C@@H](C)N[C@H](C)C5)ccc4n3)cc(F)c2n1 (stereo partly drawn) [Compound 1483, 6-[(2R,6R)-2,6-dimethyl-4-piperidyl]-2-(8-fluoro-2-methyl-imidazo[1,2-a]pyridin-6-yl)pyrido[4,3-d]pyrimidin-5-one]",100 to 1000,100 to 1000,< 100,100 to 1000,1000 to 10000,1000 to 10000,100 to 1000,100 to 1000,100 to 1000
"Cc1c(O)c(-c2ccc3c(=O)n([C@H]4CC[C@H](N(C)C)CC4)ccc3n2)cc2cn(C)nc12 [Compound 1484, 6-[4-(dimethylamino)cyclohexyl]-2-(6-hydroxy-2,7-dimethyl-indazol-5-yl)-1,6-naphthyridin-5-one]",< 100,100 to 1000,< 100,< 100,< 100,100 to 1000,< 100,< 100,< 100
"Cc1c(O)c(-c2ccc3c(=O)n([C@H]4CC[C@@H](N(C)C)CC4)ccc3n2)cc2cn(C)nc12 [Compound 1485, 6-[4-(dimethylamino)cyclohexyl]-2-(6-hydroxy-2,7-dimethyl-indazol-5-yl)-1,6-naphthyridin-5-one]",100 to 1000,100 to 1000,< 100,100 to 1000,100 to 1000,100 to 1000,100 to 1000,100 to 1000,100 to 1000
Cc1c(O)c(-c2ccc3c(=O)n(C45CCC(N)(CC4)C5)ccc3n2)cc2cn(C)nc12 [Compound 1486],< 100,1000 to 10000,< 100,< 100,100 to 1000,1000 to 10000,100 to 1000,< 100,100 to 1000

# Continued, in another order:
GI50 [1] [nM],IC50 (Target C) [nM],IC50 (SMN2 mRNA) [nM],IC50 (MYB mRNA; [2]) [nM],IC50 (MYB mRNA; [3]) [nM],IC50 (HTT mRNA; [4]) [nM],IC50 (HTT mRNA; [5]) [nM],Structure (SMILES),AC50 (MYB mRNA; RT-qPCR) [nM],AC50 (HTT mRNA; RT-qPCR) [nM]
100 to 1000,1000 to 10000,< 100,100 to 1000,100 to 1000,1000 to 10000,100 to 1000,Cc1c(O)c(-c2ncc3c(=O)n(C45CCC(N(C)C)(CC4)C5)ccc3n2)cc2cn(C)nc12 [Compound 1488],100 to 1000,100 to 1000
100 to 1000,1000 to 10000,< 100,100 to 1000,100 to 1000,1000 to 10000,1000 to 10000,"Cn1cc2cc(-c3ncc4c(=O)n(C56CCC(N)(CC5)C6)ccc4n3)cc(F)c2n1 [Compound 1489, 6-(4-aminonorbornane-1-yl)-2-(7-fluoro-2-methyl-indazol-5-yl)pyrido[4,3-d]pyrimidin-5-one]",100 to 1000,1000 to 10000
100 to 1000,100 to 1000,< 100,< 100,< 100,100 to 1000,< 100,"Cc1cn2cc(-c3ncc4c(=O)n([C@H]5CCN[C@H](C)C5)ccc4n3)cc(F)c2n1 [Compound 1490, 2-(8-fluoro-2-methyl-imidazo[1,2-a]pyridin-6-yl)-6-[(2R,4S)-2-methyl-4-piperidyl]pyrido[4,3-d]pyrimidin-5-one]",< 100,< 100
100 to 1000,100 to 1000,< 100,100 to 1000,100 to 1000,100 to 1000,100 to 1000,"Cc1cn2cc(-c3nc(C)c4c(=O)n(C5CCNCC5)ccc4n3)cc(F)c2n1 [Compound 1491, 2-(8-fluoro-2-methyl-imidazo[1,2-a]pyridin-6-yl)-4-methyl-6-(4-piperidyl)pyrido[4,3-d]pyrimidin-5-one]",100 to 1000,100 to 1000
100 to 1000,1000 to 10000,< 100,100 to 1000,100 to 1000,1000 to 10000,1000 to 10000,Cc1cn2cc(-c3ccc4c(=O)n(C56CCC(N)(CC5)C6)ccc4n3)cc(F)c2n1 [Compound 1492],100 to 1000,1000 to 10000
100 to 1000,1000 to 10000,< 100,100 to 1000,100 to 1000,1000 to 10000,1000 to 10000,"C[C@H]1C[C@@H](n2ccc3nc(-c4cc5cn(C)nc5cc4O)ncc3c2=O)CCN1 [Compound 1493, 2-(6-hydroxy-2-methyl-indazol-5-yl)-6-[(2S,4S)-2-methyl-4-piperidyl]pyrido[4,3-d]pyrimidin-5-one]",100 to 1000,1000 to 10000
100 to 1000,1000 to 10000,< 100,100 to 1000,100 to 1000,1000 to 10000,1000 to 10000,Cc1cn2cc(-c3ccc4c(=O)n([C@H]5CCN[C@@H](C)C5)ccc4n3)cc(F)c2n1 [Compound 1494],100 to 1000,1000 to 10000
100 to 1000,100 to 1000,< 100,< 100,< 100,100 to 1000,< 100,Cc1cn2nc(-c3ccc4c(=O)n([C@H]5CCN[C@@H](C)C5)ccc4n3)cc(C)c2n1 [Compound 1495],< 100,< 100
100 to 1000,1000 to 10000,< 100,100 to 1000,100 to 1000,1000 to 10000,100 to 1000,"Cc1cn2cc(-c3ncc4c(=O)n([C@@H]5CCNC(C)(C)C5)ccc4n3)cc(F)c2n1 [Compound 1496, 6-[(4R)-2,2-dimethyl-4-piperidyl]-2-(8-fluoro-2-methyl-imidazo[1,2-a]pyridin-6-yl)pyrido[4,3-d]pyrimidin-5-one]",100 to 1000,100 to 1000
